Test results taken from US6268395A, “Phorbol derivatives having antivirus activity” (Lead Chemical Co., Ltd., priority 1999, dated 2001).
Entries after “also recorded” stand apart in the source; their conditions may differ. Where two headings read alike, the source gives them in different places.

Columns and labels:
protein kinase C (PKC) = type: biochemical, mouse; conditions: for % Activity of PKC: relative to TPA positive control; for activation of PKC (in words): concentration not given
Method: After addition of 0.55 nM [γ-^32 P] ATP (50×10^3 cpm/nmol), the reaction mixture was mixed and allowed to be kept at 37° C. for 30 minutes. Then the reactions were terminated by the addition of 10 μl of ice-cold stop reagent. Aliquots of 35 μL were transferred to the center of peptide binding discs. After 10 minutes, the discs were washed two times with 75 mM orthophosphoric acid. The activity of ^32 P-labeled samples was counted in 10/mL of a scintillation fluid for 1 minute. […] Blank (in the absence of PKC) and control (in the absence of TPA or tested samples) were also carried out. One unit of PKC was defined as that amount of enzyme, which incorporated 1 nmol of phosphate from ATP into its substrate, peptide, per minute under the assay conditions, described above.

HIV-1 = experiment: Inhibition of HIV-1-induced cytopathic effect (CPE) in MT-4 cells; type: cell-based, HIV-1 (LAV-1) in human MT-4 cells; conditions: for IC100: Human immunodeficiency virus 1, MT4, 120 h, read-out: Anti-HIV-1 IC100 (complete prevention of HIV-1-induced CPE); for r = CC0/IC100: 7200 min; for CPE inhibitory effect (in words): HIV-1; for anti-HIV-1 activity: at concentrations up to 500 μg/mL
Method: (§1) In the experiments, MT-4 cells were used. The cells were incubated at 37° C. under 5% CO2 in RPMI-1640 medium (FCS, Flow laboratories, North Ryde, Australia) supplemented with 100 μg/mL of streptomycin (Meiji Seika, Tokyo, Japan), and 100 U/mL of penicillin G (Banyu Pharmaceutical, Tokyo, Japan).
HIV-1 was obtained from culture supernatant of MOLT-4 cells that had been persistently infected with LAV-1.
j) Assay of cytopathic effect(CPE) of HIV-1 in MT-4 cells
(§2) The inhibitory effect of test compounds on HIV-1-induced cytopathogenicity was measured by the method of Harada, Koyanagi & Yamamoto (1985). MT-4 cells were infected for 1 hour with HIV-1 (at TCID50 of 0.001/well) and non-adsorbed virus was removed by washing. Then, the cells were resuspended in RPMI-1640 medium at a concentration of 1.5×10^5 cells/mL. A 200 μL/well of the cell suspension was cultured for 5 days in days in a 96-well culture plate containing various concentrations (12 doses, maximum 1,000 μg/mL and minimum […]) of the test compounds. Control assays were performed in the absence of test compounds with HIV-1-infected and uninfected cultures. On day 5, the IC100 of the test compound required for completely preventing HIV-1-induced CPE(IC) was determined through an optical microscope and the cell growth was examined to give the CC0 that reduces the viability of MT-4 cells.
A variety of phorbol esters and related compounds were tested for their ability to inhibit the replication and infectivity of HIV-1 in MT-4 cells, a human CD4-positive cell line continually infected with HTLV-1, and the results are presented in Table 3.

[1] = Cell growth / viability of MT-4 cells (cytotoxicity); type: cell-based; conditions: human, day 5, read-out: CC0 (concentration that reduces viability of MT-4 cells; minimum cytotoxic concentration)
Method: as §1, §2

[2] = MT-4 cells, 5 days, NE: Not effective
[3] = 10 ng/mL (standard concentration)

SMILES	% Activity of PKC (protein kinase C (PKC); 10 ng/mL)	% Activity of PKC (protein kinase C (PKC); 2.7 μg/mL)	IC100 (HIV-1; [2])	Anti-HIV-1 IC100 (complete prevention of HIV-1-induced CPE) (HIV-1; [2])	r = CC0/IC100 (HIV-1; MT-4 cells)	MCC at 120 h [1]	PKC activation (in words) (protein kinase C (PKC); 10 ng to 2.7 μg/mL)	activation of PKC (in words) (protein kinase C (PKC))	CPE inhibitory effect (in words) (HIV-1; MT-4 cells)	anti-HIV-1 activity (HIV-1)	IC100 (HIV-1)	PKC activation (in words) (protein kinase C (PKC); [3])	PKC activation (in words) (protein kinase C (PKC); high concentrations)	enhancement of CPE inhibitory activity (HIV-1; relative to compound 1)
C/C=C(\C)C(=O)O[C@@]12[C@H](O)[C@@H](C)[C@@]3(O)[C@@H](C=C(COC(=O)CCCCCCC/C=C\C/C=C\CCCCC)C[C@]4(O)C(=O)C(C)=C[C@@H]34)[C@@H]1C2(C)C [Compound 2, 13-O-Tigloylphorobol-20-(9Z,12Z-octadecadienoate)]	14%	32%	7.81 µg/mL	7.8 µg/mL	8.00	62.5 µg/mL	–	–	–	–	–	–	–	–
CO[C@]12CC(COC(C)=O)=C[C@H]3[C@@H]4C(C)(C)[C@]4(OC(C)=O)[C@H](OC(C)=O)[C@@H](C)[C@]3(O)[C@@H]1C=C(C)C2=O [Compound 16, 4-O-Methylphorbol-12,13,20-triacetate]	0%	0%	31.3 µg/mL	–	3.99	125 µg/mL	no activation	no activation of PKC	increased in the CPE inhibitory effect	–	–	–	–	–
CCCCCCCCCCCC(=O)O[C@@]12[C@H](OC(=O)C(C)CC)[C@@H](C)[C@@]3(O)[C@@H](C=C(CO)C[C@]4(O)C(=O)C(C)=C[C@@H]34)[C@@H]1C2(C)C (stereo partly drawn) [Compound 7, 12-O-(2-Methylbutyroyl)phorbol-13-dodecanoate]	16%	30%	15.6 µg/mL	–	4.01	62.5 µg/mL	–	–	–	–	–	–	–	–
CC1=C[C@@H]2[C@@H](CC(CO)=C[C@H]3[C@@H]4C(C)(C)[C@]4(O)[C@H](O)[C@@H](C)[C@]23O)C1=O [Compound 20, 4-Deoxy-4α-phorbol]	0%	25%	–	–	–	500 µg/mL	–	weak activators of PKC	did not show CPE inhibitory effect; also recorded: showed no effect	did not show anti-HIV-1 activity	–	–	–	–
CC(=O)OCC1=C[C@H]2[C@@H]3C(C)(C)[C@]3(OC(C)=O)[C@H](OC(C)=O)[C@@H](C)[C@]2(O)[C@@H]2C=C(C)[C@H](O)[C@@]2(O)C1 [Compound 15, 3-Deoxo-3β-hydroxyphorbol-12,13,20-triacetate]	0%	26%	–	–	2.00	1000 µg/mL	–	–	loss of CPE inhibitory effect	–	500 µg/mL	–	–	–
CC(=O)OCC12CC3(O)C(=O)C1(C)C1C3C3(O)C(C)C(OC(C)=O)C4(OC(C)=O)C(C3C12)C4(C)C (stereo not drawn) [Compound 24, Lumiphorbol-12,13,20-triacetate]	0%	93%	–	–	–	500 µg/mL	–	–	showed no effect	did not show anti-HIV-1 activity	–	no activation was observed	enhanced activation of PKC	–
CC(=O)OCC1=C[C@H]2[C@@H]3C(C)(C)[C@]3(OC(C)=O)[C@H](OC(C)=O)[C@@H](C)[C@]2(O)[C@@H]2C=C(C)C(=O)[C@]2(OC(C)=O)C1 [Compound 23, 4α-Phorbol-4,12,13,20-tetraacetate]	0%	–	–	–	–	–	–	–	showed no effect	–	–	did not activate PKC	enhanced activation of PKC	–
CCCCCCCCCCCCCC(=O)O[C@@H]1[C@@H](C)[C@@]2(O)[C@@H](C=C(COC(C)=O)C[C@]3(O)C(=O)C(C)=C[C@@H]23)[C@@H]2C(C)(C)[C@]12OC(C)=O [Compound 14, 12-O-Tetradecanoylphorbol-13,20-diacetate]	0%	30%	15.6 µg/mL	–	4.01	62.5 µg/mL	–	dramatically decreased	dramatically decreased	–	–	–	–	–
C=C(C)C1C(OC(C)=O)=CC(C)C2(O)C1C=C(COC(=O)CCCCCCC/C=C\C/C=C\CCCCC)CC1(O)C(=O)C(C)=CC12 (stereo not drawn) [Compound 18, 13-O-Acetylcrotophorbolone-enol-20-linoleate]	24%	24%	7.81 µg/mL	7.8 µg/mL	16.0	125 µg/mL	–	–	–	–	–	–	–	2 times
CCCCC/C=C\C/C=C\CCCCCCCC(=O)OCC1=C[C@H]2[C@@H]3C(C)(C)[C@]3(OC(C)=O)[C@H](OC(C)=O)[C@@H](C)[C@]2(O)[C@@H]2C=C(C)C(=O)[C@@]2(O)C1 [Compound 13, Phorbol-12,13-diacetate-20-linoleate]	0%	44%	7.81 µg/mL	7.8 µg/mL	8.00	62.5 µg/mL	–	without an increase in the activity of PKC	Enhancement of the anti-HIV activity	–	–	–	–	–
CC1=C[C@H]2[C@@]3(O)[C@H](C)[C@@H](O)[C@]4(O)[C@H]([C@@H]3C=C(CO)C[C@@]2(O)C1=O)C4(C)C [Compound 19, 4α-Phorbol]	1%	5%	–	–	–	500 µg/mL	–	weak activators of PKC	did not show CPE inhibitory effect; also recorded: showed no effect	did not show anti-HIV-1 activity	–	–	–	–
CC(=O)O[C@@]12[C@H](O)[C@@H](C)[C@@]3(O)[C@@H](C=C(CO)C[C@]4(O)C(=O)C(C)=C[C@@H]34)[C@@H]1C2(C)C [Compound 10, 13-O-Acetylphorbol]	0%	14%	125 µg/mL	–	> 8.00	> 1000 µg/mL	–	–	–	–	–	did not activate PKC	–	–
CC(=O)OCC1=C[C@H]2[C@@H]3C(C)(C)[C@]3(OC(C)=O)[C@H](OC(C)=O)[C@@H](C)[C@]2(OC(C)=O)[C@@H]2C=C(C)C(=O)[C@@]2(OC(C)=O)C1 [Compound 17, Phorbol-4,9,12,13,20-pentaacetate]	0%	–	125 µg/mL	–	2.00	250 µg/mL	–	–	–	–	–	did not activate PKC	–	–
